The test has as its system endogenous cellular STAT1 (phosphorylated at Tyr701) in NCI-H1373 cells. As to the kind of experiment: Phospho-STAT1 (Tyr701) LANCE Ultra TR-FRET Detection Assay. It counts as cell-based. The settings on record: phospho-STAT1 (Tyr701) induction, read-out: NH1373 pSTAT1 EC50. Background: Time-resolved FRET reads energy transfer from a long-lived donor to a nearby acceptor.

SMILES strings stand for the structures. pEC50: −log10 of the molar value. Where two headings read alike, the source gives them in different places.

The text below walks through data of patent US12459922B2 (Gilead Sciences, Inc., priority 2022, dated 2025).

The term pEC50 denotes −log10 of the EC50, conventionally taken in molar units.

`CC[C@@H](CCCn1ccc2cc(-c3ncc(OC(F)F)c(N)n3)c(F)cc2c1=O)Nc1cn[nH]c(=O)c1C(F)(F)F` [Example 360, (S)-6-(4-amino-5-(difluoromethoxy)pyrimidin-2-yl)-7-fluoro-2-(4-((6-oxo-5-(trifluoromethyl)-1,6-dihydropyridazin-4-yl)amino)hexyl)isoquinolin-1(2H)-one]: the pEC50 (Homo sapiens, NCI-H1373, 48 h) is 7.90. As to `C[C@@H](CCCn1cnc2cc(-c3ncc(S(C)(=O)=O)cn3)c(F)cc2c1=O)Nc1cn[nH]c(=O)c1C(F)(F)F` [Example 126, (S)-6-fluoro-7-(5-(methylsulfonyl)pyrimidin-2-yl)-3-(4-((6-oxo-5-(trifluoromethyl)-1,6-dihydropyridazin-4-yl)amino)pentyl)quinazolin-4(3H)-one], for the setting “Homo sapiens, NCI-H1373, 48 h”, the pEC50 is 5.89. As for `C[C@@H](CCCn1ccc2cc(-c3ncc(C(F)(F)F)c(N)n3)c(F)cc2c1=O)Nc1cn[nH]c(=O)c1C(F)(F)F` [Example 128, (S)-6-(4-amino-5-(trifluoromethyl)pyrimidin-2-yl)-7-fluoro-2-(4-((6-oxo-5-(trifluoromethyl)-1,6-dihydropyridazin-4-yl)amino)pentyl)isoquinolin-1(2H)-one], for the setting “48 hours”, the pEC50 was 7.78. Turning to `CCOC[C@@H](CCCn1ccc2cc(-c3ncc(C(F)(F)F)cn3)c(F)cc2c1=O)Nc1cn[nH]c(=O)c1C(F)(F)F` [Example 180, (R)-2-(5-ethoxy-4-((6-oxo-5-(trifluoromethyl)-1,6-dihydropyridazin-4-yl)amino)pentyl)-7-fluoro-6-(5-(trifluoromethyl)pyrimidin-2-yl)isoquinolin-1(2H)-one], the pEC50 (Homo sapiens, NCI-H1373, 48 h) is 8.72.

As for `[2H][C@@](C)(CCCn1ccc2cc(-c3ncc(C(F)(F)F)cn3)c(F)c(F)c2c1=O)Nc1cn[nH]c(=O)c1C(F)(F)F` (single isomer, unassigned) [Example 86], where the note is “Homo sapiens, NCI-H1373, 48 h”, the pEC50 was 8.04.

Consider `Nc1nc(-c2cc3ccn(CCC[C@@H]4CCCN4c4cn[nH]c(=O)c4C(F)(F)F)c(=O)c3cc2F)ncc1C(F)(F)F` [Example 121, (S)-6-(4-amino-5-(trifluoromethyl)pyrimidin-2-yl)-7-fluoro-2-(3-(1-(6-oxo-5-(trifluoromethyl)-1,6-dihydropyridazin-4-yl)pyrrolidin-2-yl)propyl)isoquinolin-1(2H)-one], for which the pEC50 (Homo sapiens, NCI-H1373, 48 h) was 8.29.

For `O=c1[nH]ncc(N[C@H]2CCC[C@@H](Cn3ccc4cc(-c5cnc(C(F)F)cn5)c(F)cc4c3=O)C2)c1C(F)(F)F` [Example 258, 6-(5-(difluoromethyl)pyrazin-2-yl)-7-fluoro-2-(((1R,3S)-3-((6-oxo-5-(trifluoromethyl)-1,6-dihydropyridazin-4-yl)amino)cyclohexyl)methyl)isoquinolin-1(2H)-one], the pEC50 (Homo sapiens, NCI-H1373, 48 h) is 7.50. With `C[C@@H](CCCn1ccc2cc(-c3ncc(C(F)(F)F)c(N4CC(C)(O)C4)n3)c(F)cc2c1=O)Nc1cn[nH]c(=O)c1C(F)(F)F` [Example 191, (S)-7-fluoro-6-(4-(3-hydroxy-3-methylazetidin-1-yl)-5-(trifluoromethyl)pyrimidin-2-yl)-2-(4-((6-oxo-5-(trifluoromethyl)-1,6-dihydropyridazin-4-yl)amino)pentyl)isoquinolin-1(2H)-one], the pEC50 (Homo sapiens, NCI-H1373, 48 h) was 7.57. Same read-out and setting: in the case of `O=c1[nH]ncc(N[C@H](CCCn2ccc3cc(-c4cnc(N5CCOCC5)cn4)c(F)cc3c2=O)COC(F)F)c1C(F)(F)F` [Example 422, (R)-2-(5-(difluoromethoxy)-4-((6-oxo-5-(trifluoromethyl)-1,6-dihydropyridazin-4-yl)amino)pentyl)-7-fluoro-6-(5-morpholinopyrazin-2-yl)isoquinolin-1(2H)-one] it was 7.06.

In the case of `C[C@@H](CCCn1ccc2cc(-n3cc(C(F)(F)F)cn3)ccc2c1=O)Nc1cn[nH]c(=O)c1C(F)(F)F` [Example 173, (S)-2-(4-((6-oxo-5-(trifluoromethyl)-1,6-dihydropyridazin-4-yl)amino)pentyl)-6-(4-(trifluoromethyl)-1H-pyrazol-1-yl)isoquinolin-1(2H)-one], the negative-log EC50 (pEC50) (Homo sapiens, NCI-H1373, 48 h) is 6.57.

Turning to `C[C@@H](CCCn1ccc2cc(-c3ncc4c(n3)CS(=O)(=O)C4)c(F)cc2c1=O)Nc1cn[nH]c(=O)c1C(F)(F)F` [Example 225, (S)-6-(6,6-dioxido-5,7-dihydrothieno[3,4-d]pyrimidin-2-yl)-7-fluoro-2-(4-((6-oxo-5-(trifluoromethyl)-1,6-dihydropyridazin-4-yl)amino)pentyl)isoquinolin-1(2H)-one], under “Homo sapiens, NCI-H1373, 48 h”, the pEC50 was 6.02.

With `C[C@H](Nc1cn[nH]c(=O)c1C(F)(F)F)[C@H](O)CCn1ccc2cc(-c3ncc(C(F)(F)F)cn3)c(F)cc2c1=O` [Example 445, 7-fluoro-2-((3R,4S)-3-hydroxy-4-((6-oxo-5-(trifluoromethyl)-1,6-dihydropyridazin-4-yl)amino)pentyl)-6-(5-(trifluoromethyl)pyrimidin-2-yl)isoquinolin-1(2H)-one], under “Homo sapiens, NCI-H1373, 48 h”, the pEC50 is 7.73. As to `CNc1nc(-c2cc3ccn(CCC[C@H](C)Nc4cn[nH]c(=O)c4C(F)(F)F)c(=O)c3cc2F)ncc1OC` [Example 214], the pEC50 (Homo sapiens, NCI-H1373, 48 h) is 7.75. As to `C[C@@H]1C[C@H](C)N1c1nc(-c2cc3ccn(CCC[C@H](C)Nc4cn[nH]c(=O)c4C(F)(F)F)c(=O)c3cc2F)ncc1C(F)(F)F` [Example 318, 6-(4-((2R,4S)-2,4-dimethylazetidin-1-yl)-5-(trifluoromethyl)pyrimidin-2-yl)-7-fluoro-2-((S)-4-((6-oxo-5-(trifluoromethyl)-1,6-dihydropyridazin-4-yl)amino)pentyl)isoquinolin-1(2H)-one], under “Homo sapiens, NCI-H1373, 48 h”, the pEC50 was 7.54. Turning to `CCNc1nc(-c2cc3ncn(CCC[C@H](C)Nc4cn[nH]c(=O)c4C(F)(F)F)c(=O)c3cc2F)ncc1C(F)(F)F` [Example 117, 7-[4-(ethylamino)-5-(trifluoromethyl)pyrimidin-2-yl]-6-fluoro-3-[(4S)-4-[[6-oxo-5-(trifluoromethyl)-1H-pyridazin-4-yl]amino]pentyl]quinazolin-4-one], the pEC50 (Homo sapiens, NCI-H1373, 48 h) was 8.28.

In the case of `COC[C@@H](CCCn1ccc2cc(-c3ncc(C(F)(F)F)cn3)c(F)cc2c1=O)Nc1cn[nH]c(=O)c1C(F)(F)F` [Example 135, (R)-7-fluoro-2-(5-methoxy-4-((6-oxo-5-(trifluoromethyl)-1,6-dihydropyridazin-4-yl)amino)pentyl)-6-(5-(trifluoromethyl)pyrimidin-2-yl)isoquinolin-1(2H)-one], the pEC50 (Homo sapiens, NCI-H1373, 48 h) is 7.75. Take `O=c1[nH]ncc(N2CC[C@@H]2CCCn2cnc3cc(-c4ncc(C(F)(F)F)cn4)c(F)cc3c2=O)c1C(F)(F)F` (single isomer, unassigned) [Example 151]: where the note is “Homo sapiens, NCI-H1373, 48 h”, the pEC50 was 7.23. Still for that read-out and setting: next, `Nc1nc(-c2cc3ncn(C[C@@H]4CCC[C@H](Nc5cn[nH]c(=O)c5C(F)(F)F)C4)c(=O)c3cc2F)cnc1C(F)(F)F` [Example 254, 7-(6-amino-5-(trifluoromethyl)pyrazin-2-yl)-6-fluoro-3-(((1R,3S)-3-((6-oxo-5-(trifluoromethyl)-1,6-dihydropyridazin-4-yl)amino)cyclohexyl)methyl)quinazolin-4(3H)-one]: 7.50; `C[C@@H](CCCn1cnc2cc(-c3ncc(C(F)F)cn3)c(F)cc2c1=O)Nc1cn[nH]c(=O)c1C(F)(F)F` [Example 82, (S)-7-(5-(difluoromethyl)pyrimidin-2-yl)-6-fluoro-3-(4-((6-oxo-5-(trifluoromethyl)-1,6-dihydropyridazin-4-yl)amino)pentyl)quinazolin-4(3H)-one]: 7.20. The same measure, in the same setting: in the case of `COc1cnc(-c2cc3ccn(CCC[C@H](C)Nc4cn[nH]c(=O)c4C(F)(F)F)c(=O)c3cc2F)nc1NCC(F)F` [Example 158, 6-[4-(2,2-difluoroethylamino)-5-methoxy-pyrimidin-2-yl]-7-fluoro-2-[(4S)-4-[[6-oxo-5-(trifluoromethyl)-1H-pyridazin-4-yl]amino]pentyl]isoquinolin-1-one] it was 6.96; in that of `C[C@@H](CCCn1ccc2cc(-c3ncc(N4CC(O)(C(F)(F)F)C4)cn3)c(F)cc2c1=O)Nc1cn[nH]c(=O)c1C(F)(F)F` [Example 69, 7-fluoro-6-[5-[3-hydroxy-3-(trifluoromethyl)azetidin-1-yl]pyrimidin-2-yl]-2-[(4S)-4-[[6-oxo-5-(trifluoromethyl)-1H-pyridazin-4-yl]amino]pentyl]isoquinolin-1-one], 6.83. Still for that read-out and setting: next, `Cc1cnc(-c2cc3ncn(CCC[C@H](C)Nc4cn[nH]c(=O)c4C(F)(F)F)c(=O)c3cc2F)nc1` [Example 95, (S)-6-fluoro-7-(5-methylpyrimidin-2-yl)-3-(4-((6-oxo-5-(trifluoromethyl)-1,6-dihydropyridazin-4-yl)amino)pentyl)quinazolin-4(3H)-one]: 7.01; `COc1cnc(-c2cc3ccn(CCC[C@H](C)Nc4cn[nH]c(=O)c4C(F)(F)F)c(=O)c3cc2F)nc1N1CC(F)(F)C1` [Example 210]: 6.88. As for `C#C[C@H](CCCn1ccc2cc(-c3ncc(C(F)(F)F)cn3)c(F)cc2c1=O)Nc1cn[nH]c(=O)c1C(F)(F)F` [Example 171, 7-fluoro-2-[(4S)-4-[[6-oxo-5-(trifluoromethyl)-1H-pyridazin-4-yl]amino]hex-5-ynyl]-6-[5-(trifluoromethyl)pyrimidin-2-yl]isoquinolin-1-one], for the setting “Homo sapiens, NCI-H1373, 48 h”, the pEC50 is 6.59.

Regarding `C[C@@H](CCCn1ccc2cc(-c3ccc(C(F)F)cn3)c(F)c(F)c2c1=O)Nc1cn[nH]c(=O)c1C(F)(F)F` [Example 51, (S)-6-(5-(difluoromethyl)pyridin-2-yl)-7,8-difluoro-2-(4-((6-oxo-5-(trifluoromethyl)-1,6-dihydropyridazin-4-yl)amino)pentyl)isoquinolin-1(2H)-one], under “Homo sapiens, NCI-H1373, 48 h”, the negative logarithm of the EC50 (pEC50) was 7.35. Still for that read-out and setting: next, `C[C@@H](CCCn1cnc2cc(-c3ncc(OC(F)F)c(N)n3)c(F)cc2c1=O)Nc1cn[nH]c(=O)c1C(F)(F)F` [Example 367, (S)-7-(4-amino-5-(difluoromethoxy)pyrimidin-2-yl)-6-fluoro-3-(4-((6-oxo-5-(trifluoromethyl)-1,6-dihydropyridazin-4-yl)amino)pentyl)quinazolin-4(3H)-one]: 7.29.
